The values that follow come from ChEMBL document CHEMBL5032520, “Low-Valent Calix[4]arene Glycoconjugates Based on Hydroxamic Acid Bearing Linkers as Potent Inhibitors in a Model of Ebola Virus Cis-Infection and HCMV-gB-Recombinant Glycoprotein Interaction with MDDC Cells by Blocking DC-SIGN” (J Med Chem, 2021).

pIC50: −log10 of the molar value.

Experiment [1] relates to Human betaherpesvirus 5. Nature of the experiment: Potency index, ratio of Mannan IC50 to test compound IC50 for antiviral activity against HCMV infected in U-937 cells expressed in DC-SIGN using flow cytometry. The experiment is classed as functional.
Experiment [2] deals with Human betaherpesvirus 5. Nature of the experiment: Antiviral activity against HCMV infected in U-937 cells expressed in DC-SIGN using flow cytometry. The experiment is classed as functional, organism-based. Conditions: Human betaherpesvirus 5, U-937.

On to `C[C@@H]1O[C@@H](OCc2cn(CCCCCC(=O)N(O)Cc3cn(CCCOc4c5cc(C(C)(C)C)cc4Cc4cc(C(C)(C)C)cc(c4OCCCn4cc(CN(O)C(=O)CCCCCn6cc(CO[C@@H]7O[C@@H](C)[C@@H](O)[C@@H](O)[C@@H]7O)nn6)nn4)Cc4cc(C(C)(C)C)cc(c4OCCCn4cc(CN(O)C(=O)CCCCCn6cc(CO[C@@H]7O[C@@H](C)[C@@H](O)[C@@H](O)[C@@H]7O)nn6)nn4)Cc4cc(C(C)(C)C)cc(c4OCCCn4cc(CN(O)C(=O)CCCCCn6cc(CO[C@@H]7O[C@@H](C)[C@@H](O)[C@@H](O)[C@@H]7O)nn6)nn4)C5)nn3)nn2)[C@@H](O)[C@H](O)[C@@H]1O`, for which the “Ratio IC50” value in experiment [1] was found to be 31. The IC50 in experiment [2] worked out at 0.5 µg/mL.

For `CC(C)(C)c1cc2c(OCCCn3cc(CN(O)C(=O)CCCCCn4cc(CO[C@H]5O[C@H](CO)[C@@H](O)[C@H](O)[C@@H]5O)nn4)nn3)c(c1)Cc1cc(C(C)(C)C)cc(c1OCCCn1cc(CN(O)C(=O)CCCCCn3cc(CO[C@H]4O[C@H](CO)[C@@H](O)[C@H](O)[C@@H]4O)nn3)nn1)Cc1cc(C(C)(C)C)cc(c1OCCCn1cc(CN(O)C(=O)CCCCCn3cc(CO[C@H]4O[C@H](CO)[C@@H](O)[C@H](O)[C@@H]4O)nn3)nn1)Cc1cc(C(C)(C)C)cc(c1OCCCn1cc(CN(O)C(=O)CCCCCn3cc(CO[C@H]4O[C@H](CO)[C@@H](O)[C@H](O)[C@@H]4O)nn3)nn1)C2`, in experiment [1], the “Ratio IC50” value was found to be 34. This compound had an IC50 in experiment [2] of 0.45 µg/mL.

For the compound `COC(=O)CNC(=O)CN(Cc1cn(CCCOc2c3cc(C(C)(C)C)cc2Sc2cc(C(C)(C)C)cc(c2OCCCn2cc(CN(CC(=O)NCC(=O)OC)C(=O)CCCCCn4cc(CO[C@@H]5O[C@@H](C)[C@@H](O)[C@@H](O)[C@@H]5O)nn4)nn2)Sc2cc(C(C)(C)C)cc(c2OCCCn2cc(CN(CC(=O)NCC(=O)OC)C(=O)CCCCCn4cc(CO[C@@H]5O[C@@H](C)[C@@H](O)[C@@H](O)[C@@H]5O)nn4)nn2)Sc2cc(C(C)(C)C)cc(c2OCCCn2cc(CN(CC(=O)NCC(=O)OC)C(=O)CCCCCn4cc(CO[C@@H]5O[C@@H](C)[C@@H](O)[C@@H](O)[C@@H]5O)nn4)nn2)S3)nn1)C(=O)CCCCCn1cc(CO[C@@H]2O[C@@H](C)[C@@H](O)[C@@H](O)[C@@H]2O)nn1`, the “Ratio IC50” value in experiment [1] is given as 4.91. This compound returned an IC50 in experiment [2] of 3.15 µg/mL.

As for `COC(=O)CNC(=O)CN(Cc1cn(CCCOc2c3cc(C(C)(C)C)cc2Cc2cc(C(C)(C)C)cc(c2OCCCn2cc(CN(CC(=O)NCC(=O)OC)C(=O)CCCCCn4cc(CO[C@@H]5O[C@@H](C)[C@@H](O)[C@@H](O)[C@@H]5O)nn4)nn2)Cc2cc(C(C)(C)C)cc(c2OCCCn2cc(CN(CC(=O)NCC(=O)OC)C(=O)CCCCCn4cc(CO[C@@H]5O[C@@H](C)[C@@H](O)[C@@H](O)[C@@H]5O)nn4)nn2)Cc2cc(C(C)(C)C)cc(c2OCCCn2cc(CN(CC(=O)NCC(=O)OC)C(=O)CCCCCn4cc(CO[C@@H]5O[C@@H](C)[C@@H](O)[C@@H](O)[C@@H]5O)nn4)nn2)C3)nn1)C(=O)CCCCCn1cc(CO[C@@H]2O[C@@H](C)[C@@H](O)[C@@H](O)[C@@H]2O)nn1`, the “Ratio IC50” value in experiment [1] worked out at 6.45. Besides, half-maximal inhibition in experiment [2] (IC50) required 2.4 µg/mL.

As for `OC[C@H]1O[C@@H](O[C@H]2[C@H](O)[C@@H](O)[C@H](O[C@H]3[C@H](O)[C@H](O)[C@H](O[C@@H]4[C@H](O)[C@H](O)[C@H](O)O[C@@H]4CO)O[C@@H]3CO)O[C@@H]2CO)[C@@H](O)[C@@H](O)[C@@H]1O`, in experiment [2], the pIC50 was 7.81.
